Test results from article PMC11013252, “Exploration of the Antibacterial and Anti-Inflammatory Activity of a Novel Antimicrobial Peptide Brevinin-1BW” (Molecules, 2024).
≈ marks a conversion by molar mass, not a printed value. Positions of bridges follow the written chain, without caps; N, C: chain ends. No end group written: not given here.

Legend:
S. aureus = settings: ref [44],[45],[46],[47]; cited from earlier work
Text: Table 5 Comparison of MICs of Brevinin-1BW and related AMPs congeners against specific microorganisms. | column: MIC (µM) / S. aureus

MRSA/MDR S. aureus = settings: ref [44],[45],[46],[47]; cited from earlier work
Text: Table 5 Comparison of MICs of Brevinin-1BW and related AMPs congeners against specific microorganisms. | column: MIC (µM) / MRSA/MDR S. aureus

E. faecalis = settings: ref [44],[45],[46],[47]; cited from earlier work
Text: Table 5 Comparison of MICs of Brevinin-1BW and related AMPs congeners against specific microorganisms. | column: MIC (µM) / E. faecalis

S. aureus (ATCC25923) = assay: microbe, parasite or virus in culture; format: cell-based, Staphylococcus aureus; settings: Staphylococcus aureus; S. aureus (ATCC25923); CLSI two-fold dilution, MH medium, 1 × 10^6 CFU/mL, 37 °C, 18 h, OD600; 9 replicates of 3 independent experiments; read-out: MIC
Method: (§1) The minimum inhibitory concentration (MIC) of the Brevinin-1BW was measured in 96-well microtiter plates according to the Clinical and Laboratory Standards Institute (CLSI). The activated strains were treated with Mueller Hinton Agar (MHA) solid medium. Single colonies were picked and expanded to the logarithmic growth phase, and the solution was diluted to 2 × 10^6 CFU/mL using the McFarland turbidity standard. The MIC was determined with the two-fold dilution method. Briefly, 50 μL of Mueller Hinton (MH) medium was added to a 96-well plate in advance. Then, 50 μL of AMP solution was added to the first well, and 50 μL was pipetted into the next well after mixing using a row gun, while 50 μL was discarded from the last well. Final concentrations of Brevinin-1BW were 100, 50, 25, 12.5, 6.25, and 3.125 μg/mL. A 50 μL volume of the diluted bacterial solution was added, and the final concentration of the bacterial solution was 1 × 10^6 CFU/mL. This was then placed into a 37 °C incubator for 18 h until the next day to observe the degree of turbidity of the 96-well plate and measure the absorbance of the wells at 600 nm with a multifunctional microplate reader (SpectraMax iD5, Molecular Devices, Sunnyvale, CA, USA). The absence of turbidity and the measured concentration of absorbance being less than the opposing group was taken as the MIC. The positive control used ampicillin at the same final concentration as Brevinin-1BW, the negative control used 50 μL of MH medium mixed with 50 μL of 2 × 10^6 CFU/mL bacterial solution, and the blank contained only 100 μL of MH medium. Three replicate wells were set up for each experiment, and each experiment was repeated three times. The MIC and all concentrations above the MIC of bacterial solution coated on MHA solid medium were placed into 37 °C incubator incubation for 18 h. The lowest concentration resulting in no colony growth was taken as the minimum bactericidal concentration (MBC).

[1] = system: S. aureus (MDR ATCC29213); assay: microbe, parasite or virus in culture; format: cell-based, Staphylococcus aureus; settings: Staphylococcus aureus; S. aureus (MDR ATCC29213); CLSI two-fold dilution, MH medium, 1 × 10^6 CFU/mL, 37 °C, 18 h, OD600; 9 replicates of 3 independent experiments; read-out: MIC
Method: as §1

E. faecalis (ATCC29212) = assay: microbe, parasite or virus in culture; format: cell-based, Enterococcus faecalis; settings: Enterococcus faecalis; E. faecalis (ATCC29212); CLSI two-fold dilution, MH medium, 1 × 10^6 CFU/mL, 37 °C, 18 h, OD600; 9 replicates of 3 independent experiments; read-out: MIC
Method: as §1

[2] = system: S. saprophytics (ATCCBAA750); assay: microbe, parasite or virus in culture; format: cell-based, Staphylococcus saprophyticus; settings: Staphylococcus saprophyticus; S. saprophytics (ATCCBAA750); CLSI two-fold dilution, MH medium, 1 × 10^6 CFU/mL, 37 °C, 18 h, OD600; 9 replicates of 3 independent experiments; read-out: MIC
Method: as §1

[3] = system: S. epidermidis (CI 1607BL1D39); assay: microbe, parasite or virus in culture; format: cell-based, Staphylococcus epidermidis; settings: Staphylococcus epidermidis; S. epidermidis (CI 1607BL1D39), clinical isolate; CLSI two-fold dilution, MH medium, 1 × 10^6 CFU/mL, 37 °C, 18 h, OD600; 9 replicates of 3 independent experiments; read-out: MIC
Method: as §1

[4] = system: S. haemolyticus (CI 1607BLD590); assay: microbe, parasite or virus in culture; format: cell-based, Staphylococcus haemolyticus; settings: Staphylococcus haemolyticus; S. haemolyticus (CI 1607BLD590), clinical isolate; CLSI two-fold dilution, MH medium, 1 × 10^6 CFU/mL, 37 °C, 18 h, OD600; 9 replicates of 3 independent experiments; read-out: MIC
Method: as §1

E. coli (ATCC25922) = assay: microbe, parasite or virus in culture; format: cell-based; settings: Escherichia coli; E. coli (ATCC25922); CLSI two-fold dilution, MH medium, 1 × 10^6 CFU/mL, 37 °C, 18 h, OD600; 9 replicates of 3 independent experiments; read-out: MIC
Method: as §1

[5] = system: E. hormaechei (ATCC700323); assay: microbe, parasite or virus in culture; format: cell-based, Enterobacter hormaechei; settings: Enterobacter hormaechei; E. hormaechei (ATCC700323); CLSI two-fold dilution, MH medium, 1 × 10^6 CFU/mL, 37 °C, 18 h, OD600; 9 replicates of 3 independent experiments; read-out: MIC
Method: as §1

[6] = system: P. aeruginosa (ATCC27853); assay: microbe, parasite or virus in culture; format: cell-based, Pseudomonas aeruginosa; settings: Pseudomonas aeruginosa; P. aeruginosa (ATCC27853); CLSI two-fold dilution, MH medium, 1 × 10^6 CFU/mL, 37 °C, 18 h, OD600; 9 replicates of 3 independent experiments; read-out: MIC
Method: as §1

[7] = system: K. pneumoniae (ATCC700603); assay: microbe, parasite or virus in culture; format: cell-based, Klebsiella pneumoniae; settings: Klebsiella pneumoniae; K. pneumoniae (ATCC700603); CLSI two-fold dilution, MH medium, 1 × 10^6 CFU/mL, 37 °C, 18 h, OD600; 9 replicates of 3 independent experiments; read-out: MIC
Method: as §1

E. coli (MDR ATCC35218) = assay: microbe, parasite or virus in culture; format: cell-based, Escherichia coli; settings: Escherichia coli; E. coli (MDR ATCC35218); CLSI two-fold dilution, MH medium, 1 × 10^6 CFU/mL, 37 °C, 18 h, OD600; 9 replicates of 3 independent experiments; read-out: MIC
Method: as §1

[8] = system: C. koseri (CI 1611SED223); assay: microbe, parasite or virus in culture; format: cell-based, Citrobacter koseri; settings: Citrobacter koseri; C. koseri (CI 1611SED223), clinical isolate; CLSI two-fold dilution, MH medium, 1 × 10^6 CFU/mL, 37 °C, 18 h, OD600; 9 replicates of 3 independent experiments; read-out: MIC
Method: as §1

For “FLGSIVGALASALPSLISKIRN [Brevinin1TSa, related Brevinin-1 family AMP from publications]”, the MIC (S. aureus) is listed as 25 µM, the MIC (MRSA/MDR S. aureus) is listed as 25 µM and the MIC (E. faecalis) is listed as 50 µM.
With `CC1(C)S[C@@H]2[C@H](NC(=O)[C@H](N)c3ccccc3)C(=O)N2[C@H]1C(=O)O` [Ampicillin, reference compound] the MIC (S. aureus (ATCC25923)) was 3.12 µg/mL (≈ 8.94 µM), the MIC [1] was over 100 µg/mL and the MIC (E. faecalis (ATCC29212)) was 3.12 µg/mL (≈ 8.94 µM). It also gave an MIC [2] of 3.12 µg/mL (≈ 8.94 µM), an MIC [3] of 3.12 µg/mL (≈ 8.94 µM) and an MIC [4] of over 100 µg/mL. For the same compound, the MIC (E. coli (ATCC25922)) was 100 µg/mL (≈ 286 µM), the MIC [5] was over 100 µg/mL and the MIC [6] was over 100 µg/mL. It also gave an MIC [7] of over 100 µg/mL, an MIC (E. coli (MDR ATCC35218)) of over 100 µg/mL and an MIC [8] of over 100 µg/mL.
In the case of “FLPGVLRLVTKVGPAVVCAITRNC (disulfide 18-24 (inferred)) [Brevinin-1ISa, related Brevinin-1 family AMP from publications]”, the MIC (S. aureus) is given as 3.1 µM and the MIC (MRSA/MDR S. aureus) is given as 3.1 µM.
For “FLGALFKVASKLVPAAICSISKKC (disulfide 18-24 (inferred)) [Brevinin-1GHd, related Brevinin-1 family AMP from publications]”, the MIC (S. aureus) is given as 2 µM and the MIC (MRSA/MDR S. aureus) is given as 4 µM.
For “FLPAVLRVAAKVVPTVFCLISKKC (disulfide 18-24 (inferred)) [Brevinin-1JDc, related Brevinin-1 family AMP from publications]”, the MIC (S. aureus) is listed as 6 µM and the MIC (MRSA/MDR S. aureus) is listed as 3 µM.
In the case of “FLPAVIRVAANVLPTVFCAISKKC (disulfide 18-24 (inferred)) [Brevinin-1JDa, related Brevinin-1 family AMP from publications]”, the MIC (S. aureus) is listed as 6 µM and the MIC (MRSA/MDR S. aureus) is listed as 13 µM.
For “FLGAVLKVAGKLVPAAICKISKKC (disulfide 18-24 (inferred)) [Brevinin-1GHa, related Brevinin-1 family AMP from publications]”, the MIC (S. aureus) is given as 2 µM, the MIC (MRSA/MDR S. aureus) is given as 4 µM and the MIC (E. faecalis) is given as 8 µM.
